# According to ChEMBL document CHEMBL1152816 (J Med Chem, 2009):
# Columns and labels:
# [1] = Inhibition of potato 5LOX by enzyme immunoassay; set-up: species or system Solanum tuberosum
# [2] = biological target: T1, Prostaglandin G/H synthase 2 (Homo sapiens, UniProt P35354); test: Inhibition of human recombinant COX2 by enzyme immunoassay
# T1 sequence (P35354 whole entry): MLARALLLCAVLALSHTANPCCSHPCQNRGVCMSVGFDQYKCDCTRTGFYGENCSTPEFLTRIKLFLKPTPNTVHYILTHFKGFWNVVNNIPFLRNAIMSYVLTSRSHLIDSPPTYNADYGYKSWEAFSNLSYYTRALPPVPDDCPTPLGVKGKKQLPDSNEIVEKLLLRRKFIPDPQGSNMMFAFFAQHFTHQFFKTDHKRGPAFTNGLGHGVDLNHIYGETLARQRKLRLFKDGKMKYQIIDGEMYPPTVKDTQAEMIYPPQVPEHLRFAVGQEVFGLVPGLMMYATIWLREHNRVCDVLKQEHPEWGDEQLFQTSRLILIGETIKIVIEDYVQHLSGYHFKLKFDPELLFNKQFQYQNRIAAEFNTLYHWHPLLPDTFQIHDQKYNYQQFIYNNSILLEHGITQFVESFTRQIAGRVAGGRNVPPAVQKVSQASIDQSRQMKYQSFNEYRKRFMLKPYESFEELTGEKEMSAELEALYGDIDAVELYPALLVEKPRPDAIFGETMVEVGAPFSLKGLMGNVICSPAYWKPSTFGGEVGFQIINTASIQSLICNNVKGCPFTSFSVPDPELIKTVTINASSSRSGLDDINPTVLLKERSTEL
# Rattus norvegicus [3] = test: Antiinflammatory activity against carrageenan-induced foot paw edema in po dosed rat after 3 hrs; type: functional
# Rattus norvegicus [4] = test: Antiinflammatory activity against carrageenan-induced foot paw edema in rat at 150 mg/kg, po after 3 hrs; type: functional
# [5] = biological target: T2, Prostaglandin G/H synthase 1 (Bos taurus, UniProt O62664)
# T2 sequence (O62664 whole entry): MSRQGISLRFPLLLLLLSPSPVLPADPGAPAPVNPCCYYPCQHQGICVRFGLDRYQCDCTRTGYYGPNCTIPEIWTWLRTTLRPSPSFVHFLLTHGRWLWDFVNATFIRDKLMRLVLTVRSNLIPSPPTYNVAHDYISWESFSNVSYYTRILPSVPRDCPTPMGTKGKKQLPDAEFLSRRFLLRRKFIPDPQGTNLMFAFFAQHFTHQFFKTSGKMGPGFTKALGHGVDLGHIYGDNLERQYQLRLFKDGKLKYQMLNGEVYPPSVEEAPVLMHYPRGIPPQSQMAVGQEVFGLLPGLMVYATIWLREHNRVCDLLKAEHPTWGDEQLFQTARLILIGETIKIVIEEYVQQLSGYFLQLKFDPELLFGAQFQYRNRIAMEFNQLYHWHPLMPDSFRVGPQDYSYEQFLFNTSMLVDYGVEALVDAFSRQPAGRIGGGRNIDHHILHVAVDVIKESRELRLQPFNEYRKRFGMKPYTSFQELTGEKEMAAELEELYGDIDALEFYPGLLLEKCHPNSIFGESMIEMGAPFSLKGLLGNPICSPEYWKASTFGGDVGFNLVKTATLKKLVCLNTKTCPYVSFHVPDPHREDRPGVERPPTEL
# Description: Inhibition of bovine COX1 by enzyme immunoassay
Compound,IC50 [1] [µM],IC50 [2] [µM],ED50 (Rattus norvegicus [3]) [mg/kg],Activity (Rattus norvegicus [4]) [%],IC50 [5] [µM]
O=C(O)/C=C/c1ccc(O)c(O)c1 [CAFFEIC ACID],4,,,,
NS(=O)(=O)c1ccc(-n2nc(C(F)(F)F)cc2-c2ccnc(Cl)c2)cc1,0.39,0.73,> 150,33.3,8.3
CS(=O)(=O)c1ccc(-n2nc(C(F)(F)F)cc2-c2ccnc(Cl)c2)cc1,0.47,,> 150,43.1,258
NS(=O)(=O)c1ccc(-n2nc(C(F)(F)F)cc2-c2ccn(C(F)F)c(=O)c2)cc1,5,0.69,27.7,,13.1
CS(=O)(=O)c1ccc(-n2nc(C(F)(F)F)cc2-c2ccn(C(F)F)c(=O)c2)cc1,4.4,1.82,42.9,,7.8
CC(C)Cc1ccc(C(C)C(=O)O)cc1 (centres undefined) [IBUPROFEN],,,67.4,,
